This note sets out measurements from publication PMC8901119 (Chemical Science, 2021).

One series can be described thus: HepG2 whole cell lysate. The note with it: human, 37 °C, up to 24 hours.
The nature of series [1]: HepG2 whole cell lysate in CL assay buffer. The note with it: human, 37 °C, up to 30 minutes (R1A); 24 hours (RS1A).
For the next series, the system named is cathepsin B (Cts B). The note with it: human, 27 °C, up to 100 min.

Entries after “also recorded” stand apart in the source; their conditions may differ. Non-standard residues stand in square brackets, D forms with d. Ala(7-MeO-coumarin-4-yl) = COc1ccc2c(C[C@H](N)C(=O)O)cc(=O)oc2c1

As to “μHLFRAμ (H-[Ala(7-MeO-coumarin-4-yl)]HLFRA[Ala(7-MeO-coumarin-4-yl)]-OH; SMILES COc1ccc2c(C[C@H](NC(=O)[C@H](C)NC(=O)[C@H](CCCNC(=N)N)NC(=O)[C@H](Cc3ccccc3)NC(=O)[C@H](CC(C)C)NC(=O)[C@H](Cc3c[nH]cn3)NC(=O)[C@@H](N)Cc3cc(=O)oc4cc(OC)ccc34)C(=O)O)cc(=O)oc2c1)”, the fragment found entry in the series “HepG2 whole cell lysate” is on record as “μHLFR, 5 mins; also recorded: Aμ, 5 mins”; in series [1], “µHLFR; Aµ, 5 mins”. In addition, in the series with cathepsin B (Cts B), the cleaved bond result is “R-A”.
